In patent US20100266569A1, “PROSTATIC ACID PHOSPHATASE FOR THE TREATMENT OF PAIN” (priority 2007, published 2010):
Entries after “also recorded” stand apart in the source; their conditions may differ.

Columns and labels:
[1] = target: T1, A1-adenosine receptor (A1R) (Mus musculus, UniProt Q60612); experiment: Antagonism of hPAP anti-nociception by the A1R antagonist CPX, CFA model; format: in vivo
T1 construct: endogenous in cells; host or cells: wild-type C57BL/6 mice, in vivo (CPX 1 mg/kg i.p.)
T1 sequence (Q60612 1-326): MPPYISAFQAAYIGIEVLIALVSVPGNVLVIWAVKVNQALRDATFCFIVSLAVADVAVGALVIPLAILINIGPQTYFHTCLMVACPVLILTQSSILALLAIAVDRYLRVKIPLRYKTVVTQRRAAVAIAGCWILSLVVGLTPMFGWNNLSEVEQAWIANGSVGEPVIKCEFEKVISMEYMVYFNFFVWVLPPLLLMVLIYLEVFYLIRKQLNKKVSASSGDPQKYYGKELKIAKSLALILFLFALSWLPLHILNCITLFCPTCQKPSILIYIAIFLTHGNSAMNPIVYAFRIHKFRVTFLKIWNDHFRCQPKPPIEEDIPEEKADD
Protocol: Wild-type mice were tested for noxious thermal (FIG. 29A) and mechanical (FIG. 29B) sensitivity before (baseline, BL) and following injection of Complete Freund's Adjuvant (CFA-arrow) into one hindpaw (inflamed paw, open circles or dark squares). The non-inflamed hindpaw served as control (shaded circles or squares). All mice were injected with active hPAP (hPAP-arrow; 250 mU, i.t.). Two days later, half the mice were injected with vehicle (CPXN-arrow, circles; intraperitoneal (i.p.); 1 h before behavioral measurements) while the other half were injected with 8-cyclopentyl-1,3-dipropylxanthine (CPX/V-arrow, squares; 1 mg/kg i.p.; 1 h before behavioral measurements). […] All data are presented as means±SEM.
The responses of wild-type and A1R^−/− mice were also tested using the CFA chronic inflammatory pain model and the SNI neuropathic pain model.

[2] = system: wild-type C57BL/6 male mice; experiment: LPA-evoked sensitization in vivo (i.t. LPA with or without bPAP); conditions: 1 nmol LPA i.t., alone or incubated with 20 μU bPAP 10 min at 37° C.
Protocol: First, mechanical sensitivity was measured with an electronic von Frey apparatus (IITC). Then, thermal sensitivity was measured using the Hargreaves method (radiant heating of hindpaw; IITC Plantar Test Apparatus).

[3] = system: Rat1 cells; experiment: LPA-evoked calcium signaling (Fura2-AM) with LPA pre-incubated with bPAP; format: cell-based, rat; conditions: 1 μM LPA incubated 1.5 hr at 37° C. with or without 0.2 mU bPAP, applied 1 minute
Protocol: (“a” in FIG. 4). In parallel, a second tube was incubated containing 1 μM LPA (without bPAP) for 1.5 hr at 37° C. (“b” in FIG. 4). Rat1 cells were loaded with the calcium-sensitive dye Fura2-acetoxymethyl (AM) ester (Dong et al., 2001), and (LPA+bPAP) applied to these cells for 1 minute (see “a” in FIG. 4). Following a brief washout period, (LPA) was applied to the cells for 1 minute (see “b” in FIG. 4).

[4] = system: wild-type C57BL/6 male mice; experiment: Noxious thermal sensitivity, Hargreaves method (paw withdrawal latency to radiant heat) after i.t. injection; format: in vivo, mouse
Protocol: Behavior. C57BL/6 male mice, 2-3 months old, were purchased from Jackson Laboratories (Bar Harbor, Maine, United States of America) for all behavioral experiments involving PAP protein injections. All mice were acclimated to the testing room, equipment and experimenter for one day before behavioral testing. The experimenter was blind to genotype and drug treatment during behavioral testing.
Thermal sensitivity was measured by heating one hindpaw with a Plantar Test apparatus (IITC) following the Hargreaves method (Hargreaves et al., 1988). The radiant heat source intensity was calibrated so that a paw withdrawal reflex was evoked in ˜10 seconds, on average, in wild-type C57BL/6 mice. Cutoff time was 20 s. One measurement was taken from each paw per day to determine paw withdrawal latency. To perform the tail immersion assay, mice were gently restrained in a towel and the distal one-third of the tail was immersed in 46.5° C. water. Latency to withdrawal the tail was measured once per mouse. Mechanical sensitivity was measured using semi-rigid tips attached to an Electronic von Frey apparatus (IITC) as described elsewhere (Cunha et al., 2004; Inoue et al., 2004). Three measurements were taken from each paw (separated at 5 min. intervals) then averaged to determine paw withdrawal threshold in grams.
Intrathecal injections. hPAP, bPAP and vehicle controls were injected into the lumbar region of unanesthetized mice as described (Fairbanks, 2003).
Intrathecal injection was chosen because PAP protein is unlikely to reach spinal cord tissue if injected intraperitoneally.

[5] = system: wild-type C57BL/6 male mice; format: in vivo, mouse
Text: Signs of immune and microglial activation can be monitored using molecular markers.

[6] = system: PAP (bPAP, mPAP); experiment: Fluorometric acid phosphatase assay (DiFMUP, EnzChek); format: biochemical, bovine; mouse; conditions: L-tartrate 10 mM
Protocol: FIG. 3 is a set of bar graphs showing a fluorometric assay to quantify acid phosphatase activity. […] Right-hand Bar Graph: Mouse prostatic acid phosphatase (mPAP) assayed from transfected cell lysates. Activity is reduced by the PAP inhibitor L-tartrate (10 mM). These assays were performed following the manufacturers protocol (EnzChek Assay, Invitrogen, Carlsbad, Calif., United States of America) and quantified using a fluorescent microplate reader.
A way to quantify PAP activity was needed so that reproducible amounts of active PAP protein could be added to cultured cells or injected into live mice for the experiments described below. To accomplish this, two well-established methods were tested for measuring PAP activity: 1) a colorimetric assay using para-nitrophenyl phosphate (p-NPP) hydrolysis; and 2) a fluorometric assay using difluoro-4-methylumbelliferyl phosphate (DiFMUP) hydrolysis (commercially available as the EnzChek Acid Phosphatase kit from Invitrogen, Carlsbad, Calif., United States of America). Based on direct comparisons, it was determined that the fluorometric assay was much more sensitive than p-NPP for quantification of PAP activity. […] This fluorometric assay can thus be used to quantify phosphatase activity of pure PAP protein and PAP from cell lysates.

Molecule: CCCn1c(=O)c2[nH]c(C3CCCC3)nc2n(CCC)c1=O [CPX, 8-cyclopentyl-1,3-dipropylxanthine]
- effect on thermal or mechanical sensitivity after hPAP effects wore off ([1]; 1 mg/kg i.p. on day 9): did not affect thermal or mechanical sensitivity
- effect on anti-nociceptive effects of hPAP ([1]; 1 mg/kg i.p., two days after hPAP 250 mU i.t., 1 h before behavioral measurements): transiently reversed the anti-nociceptive effects of hPAP in control and inflamed hindpaws; also recorded: transiently antagonized all anti-nociceptive effects of hPAP

Molecule: lysophosphatidic acid [LPA]
- behavioral sensitization (mechanical allodynia, thermal hyperalgesia) [2]: caused long-lasting mechanical allodynia and thermal hyperalgesia
- change of intracellular calcium levels [3]: dramatically changed

Molecule: CN1CC[C@]23c4c5ccc(O)c4O[C@H]2[C@@H](O)C=C[C@H]3[C@H]1C5.O=S(=O)(O)O [morphine, morphine sulfate]
- increase in paw withdrawal latency above baseline ([4]; single i.t. injection, highest doses): 62.2%±9.9%
- side effects ([5]; mouse, in vivo): Side-effects were observed at the two highest doses

Molecule: O=C(O)[C@H](O)[C@@H](O)C(=O)O [L-tartrate]
- effect on PAP phosphatase activity [6]: inhibited; also recorded: reduced

Molecule: OC[C@H]1O[C@@H](n2cnc3c(NC4CCCC4)ncnc32)[C@H](O)[C@@H]1O [CPA, N^6-cyclopentyladenosine]
- duration of effect on paw withdrawal latency, in words ([4]; i.t., compared with hPAP): short-term effects (lasting hours not days)
- effect on noxious thermal sensitivity / paw withdrawal latency ([4]; uninjured wild-type mice, i.t. injection (bPAP 20 μU; hPAP 1.3 mg/mL or 250 mU; ALP 25,000 mU)): dose-dependent increases in paw withdrawal latency
- motor paralysis ([5]; two highest i.t. doses (dose range 0.0005 nmol-5 nmol)): transient paralysis; also recorded: fore- and hindlimb paralysis
